Assay results: PMC6016545 (Journal of medicinal chemistry, 2016)
Read-outs that look alike come from different tables or passages of the source.

Tests used:
PSMA [1] = target: T1, PSMA (Homo sapiens, UniProt Q04609); experiment: PSMA inhibition, IC50 determination
PSMA [2] = target: T1, PSMA; experiment: Mode of inhibition study; details: reversible, slowly reversible, or irreversible
PSMA(+) PC3-PIP cells = details: cited from earlier work

T1 sequence (Q04609 whole entry): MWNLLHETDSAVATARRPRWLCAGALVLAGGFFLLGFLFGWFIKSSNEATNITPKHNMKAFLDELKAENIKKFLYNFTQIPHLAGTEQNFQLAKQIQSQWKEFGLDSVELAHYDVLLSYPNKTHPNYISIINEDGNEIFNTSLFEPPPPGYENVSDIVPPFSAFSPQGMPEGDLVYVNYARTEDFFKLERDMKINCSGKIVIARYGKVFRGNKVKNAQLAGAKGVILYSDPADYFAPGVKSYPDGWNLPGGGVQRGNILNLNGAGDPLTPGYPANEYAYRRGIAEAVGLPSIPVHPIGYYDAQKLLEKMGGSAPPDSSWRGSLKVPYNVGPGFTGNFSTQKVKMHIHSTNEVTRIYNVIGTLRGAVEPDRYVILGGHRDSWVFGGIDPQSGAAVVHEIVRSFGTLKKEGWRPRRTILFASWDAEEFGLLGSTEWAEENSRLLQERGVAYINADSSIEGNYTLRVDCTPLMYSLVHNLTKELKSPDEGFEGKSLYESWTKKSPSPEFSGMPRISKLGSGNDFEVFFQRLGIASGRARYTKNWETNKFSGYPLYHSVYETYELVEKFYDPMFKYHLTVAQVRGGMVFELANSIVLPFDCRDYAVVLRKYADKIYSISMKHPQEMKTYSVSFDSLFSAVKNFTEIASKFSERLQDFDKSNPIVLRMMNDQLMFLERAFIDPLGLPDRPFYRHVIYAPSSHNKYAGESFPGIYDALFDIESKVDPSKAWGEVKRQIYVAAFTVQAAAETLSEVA

SMILES	IC50 (PSMA [1])	mode of binding to PSMA (PSMA [2])	other results
NCCCCCC(=O)NCCCCCC(=O)N[C@@H](CCC(=O)N[C@H](CCCOP(=O)(O)NC(CCC(=O)O)C(=O)O)C(=O)O)C(=O)O (stereo partly drawn) [compound 3, 2-(((S)-((4R)-4-(4-(6-(6-Aminohexanamido)-hexanamido)-4-carboxybutanamido)-4-carboxybutoxy)-(hydroxy)phosphoryl)amino)pentanedioic Acid]	7.8 nM	–	–
O=C(O)CC[C@H](NP(=O)(O)OCCC[C@H](NC(=O)CC[C@H](NC(=O)CCCCCNC(=O)c1ccc(F)cc1)C(=O)O)C(=O)O)C(=O)O [compound 5]	0.4 nM	irreversible	–
O=C(O)CCC(NP(=O)(O)OCCC[C@@H](NC(=O)CC[C@H](NC(=O)CCCCCNC(=O)CCCCCNC(=O)c1ccc(F)cc1)C(=O)O)C(=O)O)C(=O)O (stereo partly drawn) [compound 6, 2-(((S)-(((22R)-17,22-Dicarboxy-1-(4-fluoro-phenyl)-1,8,15,20-tetraoxo-2,9,16,21-tetraazapentacosan-25-yl)oxy)(hydroxy)phosphoryl)amino)pentanedioic Acid]	0.9 nM	irreversible	–
O=C(O)CCC(NC(=O)NC(CCCCNC(=O)c1ccc([18F])nc1)C(=O)O)C(=O)O (stereo not shown) [[^18F]DCFPyL, 2-(3-(1-carboxy-5-[(6-[^18F]-fluoropyridine-3-carbonyl)amino]pentyl)ureido)pentanedioic acid]	–	–	liver uptake (PSMA(+) PC3-PIP cells; 2 h): 2.14%; renal uptake (PSMA(+) PC3-PIP cells; 2 h): 15.7%; tumor uptake (PSMA(+) PC3-PIP cells; 2 h in PC3-PIP cells): 39.4%
O=C(O)CC[C@H](NC(=O)N[C@@H](CSCc1ccc([18F])cc1)C(=O)O)C(=O)O [[^18F]DCFBC, N[N-[(S)-1,3-dicarboxypropyl]carbamoyl]-4-[^18F] fluorobenzyl-L-cysteine]	–	–	tumor uptake (PSMA(+) PC3-PIP cells; PSMA(+) PC3-PIP cells): 4.7%; tumor/blood ratio (PSMA(+) PC3-PIP cells; PSMA(+) PC3-PIP cells): 13
